This is an account of results in publication PMC10580381 (ACS Pharmacology & Translational Science, 2023).

In series [1] the target is T1, ABCG2 (Homo sapiens, UniProt Q9UNQ0).
T1 sequence (Q9UNQ0 1-655): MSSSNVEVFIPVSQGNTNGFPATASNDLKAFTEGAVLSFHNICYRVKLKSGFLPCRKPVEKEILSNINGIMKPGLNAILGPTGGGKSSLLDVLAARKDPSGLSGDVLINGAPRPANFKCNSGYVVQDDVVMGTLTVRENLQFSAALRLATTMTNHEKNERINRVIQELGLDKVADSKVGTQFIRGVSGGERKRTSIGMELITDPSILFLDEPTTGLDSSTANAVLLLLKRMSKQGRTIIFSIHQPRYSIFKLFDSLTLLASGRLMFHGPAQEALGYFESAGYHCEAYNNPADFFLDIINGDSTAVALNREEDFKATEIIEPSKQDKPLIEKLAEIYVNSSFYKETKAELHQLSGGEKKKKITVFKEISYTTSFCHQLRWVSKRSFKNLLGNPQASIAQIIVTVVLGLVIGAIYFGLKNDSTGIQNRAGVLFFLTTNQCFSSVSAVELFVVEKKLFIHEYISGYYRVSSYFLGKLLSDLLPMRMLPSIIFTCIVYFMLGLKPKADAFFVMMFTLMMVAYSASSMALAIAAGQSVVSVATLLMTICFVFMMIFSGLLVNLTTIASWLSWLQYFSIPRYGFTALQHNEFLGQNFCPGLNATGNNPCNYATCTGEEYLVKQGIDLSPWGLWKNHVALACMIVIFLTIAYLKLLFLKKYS
As to the kind of experiment: ABC transporter-mediated drug efflux assay, ABCG2 (pheophorbide A). The note with it: FTC 1 μM, control ABCG2 inhibitor, HEK293/ABCG2. As to the method:
(§1) Specific inhibitors for ABCB1 (PSC833) and ABCG2 (FTC) were used as a control for comparison. Cells were analyzed by using a LSRFortessa cell analyzer (BD Biosciences). […] At least 10,000 events were collected for quantitative analysis.

For series [2], the target named is ABCB1 (Homo sapiens, UniProt P08183). The series is described as follows: ABC transporter-mediated drug efflux assay, ABCB1 (rhodamine 123). The note with it: PSC833 1 μM, control ABCB1 inhibitor, HEK293/ABCB1. As to the method: as §1
Chain of ABCB1 (P08183 whole entry, species assumed): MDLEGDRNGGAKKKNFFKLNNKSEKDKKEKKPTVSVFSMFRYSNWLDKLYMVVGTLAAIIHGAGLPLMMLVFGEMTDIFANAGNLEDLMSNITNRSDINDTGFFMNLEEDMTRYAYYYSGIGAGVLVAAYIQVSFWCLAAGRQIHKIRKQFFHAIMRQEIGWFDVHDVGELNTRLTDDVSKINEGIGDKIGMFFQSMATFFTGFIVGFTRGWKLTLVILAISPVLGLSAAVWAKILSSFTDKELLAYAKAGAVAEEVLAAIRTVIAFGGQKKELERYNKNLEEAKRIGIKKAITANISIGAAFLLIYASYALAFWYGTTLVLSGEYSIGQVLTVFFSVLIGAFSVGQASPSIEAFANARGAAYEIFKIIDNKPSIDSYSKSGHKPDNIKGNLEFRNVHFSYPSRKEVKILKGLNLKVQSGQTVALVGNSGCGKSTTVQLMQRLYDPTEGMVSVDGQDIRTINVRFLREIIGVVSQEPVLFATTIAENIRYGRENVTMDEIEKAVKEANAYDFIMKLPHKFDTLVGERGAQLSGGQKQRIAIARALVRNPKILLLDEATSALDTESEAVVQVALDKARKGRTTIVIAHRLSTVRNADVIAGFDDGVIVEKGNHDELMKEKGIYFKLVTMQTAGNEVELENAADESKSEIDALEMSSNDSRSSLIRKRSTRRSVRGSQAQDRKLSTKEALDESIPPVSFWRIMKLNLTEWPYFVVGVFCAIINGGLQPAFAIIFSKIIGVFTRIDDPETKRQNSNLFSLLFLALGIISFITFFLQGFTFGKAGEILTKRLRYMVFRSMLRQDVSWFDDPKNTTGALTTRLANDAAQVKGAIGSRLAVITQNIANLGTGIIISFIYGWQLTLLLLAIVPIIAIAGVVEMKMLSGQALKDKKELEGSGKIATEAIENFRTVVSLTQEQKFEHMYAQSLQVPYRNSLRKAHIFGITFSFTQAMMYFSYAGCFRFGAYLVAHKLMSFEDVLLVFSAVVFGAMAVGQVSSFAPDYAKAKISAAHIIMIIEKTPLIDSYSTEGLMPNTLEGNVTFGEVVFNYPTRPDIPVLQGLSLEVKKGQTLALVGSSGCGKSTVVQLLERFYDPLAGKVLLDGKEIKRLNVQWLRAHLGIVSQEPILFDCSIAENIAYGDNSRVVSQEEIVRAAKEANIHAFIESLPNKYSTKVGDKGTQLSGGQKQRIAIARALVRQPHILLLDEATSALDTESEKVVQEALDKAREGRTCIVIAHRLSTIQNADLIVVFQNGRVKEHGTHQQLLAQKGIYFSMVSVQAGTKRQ
Series [3] has as its system p27^Kip1 (CDKN1B). The series is described as follows: Real-time PCR of p27^Kip1 expression in H1975. Format: cell-based, human. Conditions: H1975, 24 h, flunarizine 2.5, 5, or 10 μM or SAHA 0.25, 0.5, or 1 μM; all concentrations tested. How it is done: (§2) Reverse transcription was performed using 1 μg of total RNA sample with the PrimeScript First Strand cDNA Synthesis Kit (TaKaRa Biomedical Technology) at 37 °C for 10 min. The cDNA was then amplified by real-time PCR to determine the relative expression of p27^Kip1 and BIM using the KAPA SYBR FAST qPCR kit (KapaBiosystems, Wilmington, Massachusetts) with a LightCycler 480 Instrument I instrument (Roche Applied Science, Indianapolis, Indiana). The house-keeping gene GAPDH was also measured for normalization. Specific primer sequences used in the PCR reactions are p27^Kip1, forward 5′-[…]-3′ and reverse 5′-[…]-3′; Bim, forward 5′-[…]-3′ and reverse 5′-[…]-3′; and GAPDH, forward 5′-[…]-3′ and reverse 5′-[…]-3′. The PCR temperature program was set at 95 °C for 5 min, followed by 35 cycles of 95 °C for 10 s and 60 °C for 10 s. The fluorescent signal was detected at the end of the PCR elongation step of every cycle to keep track of the amount of amplified DNA. ΔCt was calculated by subtracting the Ct of GAPDH from the Ct of Bim or p27^Kip1. Fold change in gene expression was analyzed by the 2^–ΔΔCt method.
Background: In qPCR the cycle at which signal appears reflects the starting amount.

The conditions of series [4]: cited from earlier work.
Series [5] has as its system Bim (BCL2L11). As to the kind of experiment: Real-time PCR of Bim expression in H1975. The note with it: H1975, 24 h, flunarizine 2.5, 5, or 10 μM or SAHA 0.25, 0.5, or 1 μM; all concentrations tested. Format: cell-based, human. How it is done: as §2
The subject of series [6] is histone H3 acetylation (Lys 9,14) (AcH3). The series is described as follows: Western blot of histone H3 acetylation (AcH3) in H1975 cells. It counts as cell-based, human. The note with it: 10 μM, 24 h (Figure 1A,B). As to the method: An increase of histone acetylation is a well-characterized hallmark of HDAC inhibition. […] After the cancer cells were treated with the designated drug candidates, they were harvested in lysis buffer (0.05 M HEPES, 0.15 M NaCl, 2 mM EDTA, 10% v/v glycerol, and 1% v/v Triton X-100, pH 7.4) supplemented with protease and phosphatase inhibitors. Sodium dodecyl sulfate poly(acrylamide) gel electrophoresis (SDS-PAGE) was used to separate the different proteins in the whole cell lysates, which were then transferred to a poly(vinylidene difluoride) membrane for immunoblot analysis using different specific antibodies (acetylated histone H3, acetylated α-tubulin, histone H3, or GAPDH; Cell Signaling Technology). The bands corresponding to specific proteins of interest were visualized by using the WesternBright ECL HRP substrate (Advansta, San Jose, California). A chemiluminescent Western blot signal was detected and analyzed using a ChemiDoc MP system (Bio-Rad Laboratories, Hercules, California).

For series [7], the system named is H1975 cells. The note with it: H1975, gefitinib 5 μM alone, 48 h.
Series [8] has as its system H820 cells. Conditions: H820, gefitinib 5 μM alone, 48 h.
For series [9], the system named is A549 cells. The note with it: A549, gefitinib 5 μM alone, 48 h.
Protocol: At least 10,000 events were acquired using a LSRFortessa cell analyzer, and the flow cytometric data were analyzed using BD FACSDiva software (BD Biosciences). Apoptotic cells were defined as the ones stained positive for both Annexin V-FITC and 7-AAD.
Series [10] deals with H1975 cells.
Series [11] deals with H820 cells.
Series [12] in a line: in vivo. Conditions: NOD SCID γ (NSG), mouse.
Protocol: A Zorbax Eclipse XDB-C18 column (4.6 × 250 mm^2, 5 μm, Agilent Technologies) was used to achieve chromatographic separation of the analytes. An isocratic chromatographic system was used. The mobile phase was water:acetonitrile (35:65, v/v) with 0.1% formic acid at a flow rate of 0.25 mL/min. The injection volume of the sample was 10 μL. The triple quadrupole mass spectrometer was operated in positive electrospray ionization mode. The spray voltage was +3000 V, and the vaporizer temperature was 280 °C. The pressure of the collision gas was 1.0 mTorr.
The test system of series [13] is H1650 cells.

For `COc1ccc2c3c([nH]c2c1)[C@H](C=C(C)C)N1C(=O)[C@@H]2CCCN2C(=O)[C@@H]1C3` [FTC], the “efflux of pheophorbide A (ABCG2 substrate)” value in series [1] is “potently inhibited the efflux”.
As to `C/C=C/C[C@@H](C)C(=O)[C@H]1C(=O)N[C@@H](C(C)C)C(=O)N(C)CC(=O)N(C)[C@@H](CC(C)C)C(=O)N[C@@H](C(C)C)C(=O)N(C)[C@@H](CC(C)C)C(=O)N[C@@H](C)C(=O)N[C@H](C)C(=O)N(C)[C@@H](CC(C)C)C(=O)N(C)[C@@H](CC(C)C)C(=O)N(C)[C@@H](C(C)C)C(=O)N1C` [PSC833], the “efflux of rhodamine 123 (ABCB1 substrate)” value in series [2] is recorded as “potently inhibited the efflux”.
Consider `O=C(CCCCCCC(=O)Nc1ccccc1)NO` [SAHA, Vorinostat], for which, in series [3], the “p27^Kip1 expression” value is “significantly increase”. Moreover, the elimination half-life in series [4] is recorded as roughly 2 h. In addition, the Bim expression result in [5] is recorded as “significantly increase”.
Consider `C(=C\c1ccccc1)/CN1CCN(C(c2ccccc2)c2ccccc2)CC1` [cinnarizine], for which, in [6], the “fold increase in histone H3 acetylation (AcH3) over the vehicle control” value is recorded as 15 ± 3 fold.
Broadly, the viability is a read-out of living cells in per cent, often relative to untreated cells. As to `COc1cc2ncnc(Nc3ccc(F)c(Cl)c3)c2cc1OCCCN1CCOCC1` [gefitinib], the apoptotic cell population was found to be 8.9 ± 1.3% in series [7], 7.9 ± 1.6% in series [8] and 7.6 ± 0.9% in series [9]. Further, the results for the viability in series [10], in [11] and in series [13] were 61 ± 5%, 66 ± 8% and 52 ± 8%, respectively. Besides, the concentration at 4 h in series [12] amounted to 32 ± 6 nM.
Regarding `Nc1nc(N)c2nc(-c3ccccc3)c(N)nc2n1` [triamterene], the “fold increase in histone H3 acetylation (AcH3) over the vehicle control” value in [6] is recorded as 75 ± 6 fold.
